One assay has as its target T1, Aromatase (Homo sapiens, UniProt P11511).
T1 construct: host or cells: JEG3 choriocarcinoma cells, intact monolayers
T1 sequence (P11511 1-503): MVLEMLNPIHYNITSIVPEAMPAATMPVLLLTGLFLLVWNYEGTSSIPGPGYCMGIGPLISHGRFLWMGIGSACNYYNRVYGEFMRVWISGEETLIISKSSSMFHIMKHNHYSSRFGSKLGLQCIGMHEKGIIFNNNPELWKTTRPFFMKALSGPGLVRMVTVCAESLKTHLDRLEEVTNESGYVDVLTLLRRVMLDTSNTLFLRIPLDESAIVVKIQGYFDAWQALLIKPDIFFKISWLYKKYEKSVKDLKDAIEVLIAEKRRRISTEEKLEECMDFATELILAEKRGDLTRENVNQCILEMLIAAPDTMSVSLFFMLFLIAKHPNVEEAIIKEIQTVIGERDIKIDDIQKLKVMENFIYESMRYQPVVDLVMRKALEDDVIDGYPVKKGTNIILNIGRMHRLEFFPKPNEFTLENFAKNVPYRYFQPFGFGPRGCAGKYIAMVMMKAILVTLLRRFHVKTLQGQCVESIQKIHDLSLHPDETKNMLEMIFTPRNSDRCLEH
As to the kind of experiment: Aromatase activity in JEG3 cells (Protocol 6). It counts as cell-based. Conditions: intact JEG3 cells, [1β-3H]androstenedione, 30 min. Here is the method:
Assay for Determining Aromatase Activity Using JEG3 Cells
Aromatase activity is measured in JEG3 choriocarcinoma cells, obtained from the ATCC. […] During the aromatase reaction, ^3H2O is liberated which can be quantified using a liquid scintillation spectrometer. […] The number of cell nuclei per flask is determined using a Coulter Counter after treating the cell monolayers with Zaponin.
Aromatase inhibition was measured in accordance with Protocol 6.

The target of another assay is T2, Steroid sulphatase (STS) (Homo sapiens, UniProt P08842).
T2 construct: host or cells: JEG3 choriocarcinoma cells, intact monolayers
T2 sequence (P08842 22-583): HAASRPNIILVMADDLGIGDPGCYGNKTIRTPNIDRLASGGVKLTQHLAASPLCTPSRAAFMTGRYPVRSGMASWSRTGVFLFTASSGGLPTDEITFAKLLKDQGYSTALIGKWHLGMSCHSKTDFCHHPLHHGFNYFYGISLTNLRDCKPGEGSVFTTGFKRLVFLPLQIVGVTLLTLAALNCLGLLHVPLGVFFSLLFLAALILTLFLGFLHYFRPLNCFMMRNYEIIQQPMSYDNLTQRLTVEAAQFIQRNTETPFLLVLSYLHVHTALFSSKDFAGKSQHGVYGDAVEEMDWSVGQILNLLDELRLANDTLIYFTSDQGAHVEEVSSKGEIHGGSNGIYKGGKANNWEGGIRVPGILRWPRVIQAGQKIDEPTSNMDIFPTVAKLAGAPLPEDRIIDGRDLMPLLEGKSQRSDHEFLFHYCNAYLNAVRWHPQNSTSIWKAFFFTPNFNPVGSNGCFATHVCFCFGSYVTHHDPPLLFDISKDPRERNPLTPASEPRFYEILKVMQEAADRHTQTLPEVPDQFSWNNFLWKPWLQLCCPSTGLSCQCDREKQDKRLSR
As to the kind of experiment: Inhibition of steroid sulphatase activity in JEG3 cells (Protocol 1). Particulars: intact JEG3 cells, [6,7-3H]oestrone-3-sulphate, 3-4 hours. It counts as cell-based. Here is the method:
Assay for Determining STS Activity Using Cancer Cells
Inhibition of Steroid Sulphatase Activity in JEG3 Cells
Steroid sulphatase activity is measured in vitro using intact JEG3 choriocarcinoma cells.
Cells are maintained in Minimal Essential Medium (MEM) containing 20 mM HEPES, 5% foetal bovine serum, 2 mM glutamine, non-essential amino acids and 0.075% sodium bicarbonate. Up to 30 replicate 25 cm^2 tissue culture flasks are seeded with approximately 1×10^5 cells/flask using the above medium Cells are grown to 80% confluency and the medium is changed every third day.
Intact monolayers of JEG3 cells in triplicate 25 cm^2 tissue culture flasks are washed with Earle's Balanced Salt Solution (EBSS) and incubated for 3-4 hours at 37° C. with 5 pmol (7×10^5 dpm) [6, 7-3H]oestrone-3-sulphate (specific activity 60 Ci/mmol) in serum-free MEM (2.5 ml) together with oestrone-3-sulphamate (11 concentrations: 0; 1fM; 0.01 pM; 0.1 pM, 1 pM; 0.01 nM; 0.1 nM; 0.01 mM; 0.1 mM; 1 mM). After incubation each flask is cooled and the medium (1 ml) is pipetted into separate tubes containing [14C]oestrone (7×10^3 dpm) (specific activity 97 Ci/mmol). The mixture is shaken thoroughly for 30 seconds with toluene (5 ml) Experiments have shown that >90% [14C]oestrone and <0 1% [3H]oestrone-3-sulphate is removed from the aqueous phase by this treatment A portion (2 ml) of the organic phase is removed, evaporated and the 3H and 14C content of the residue determined by scintillation spectrometry The mass of oestrone-3-sulphate hydrolysed was calculated from the 3H counts obtained (corrected for the volumes of the medium and organic phase used, and for recovery of [14C] oestrone added) and the specific activity of the substrate Each batch of experiments includes incubations of microsomes prepared from a sulphatase-positive human placenta (positive control) and flasks without cells (to assess apparent non-enzymatic hydrolysis of the substrate). The number of cell nuclei per flask is determined using a Coulter Counter after treating the cell monolayers with Zaponin One flask in each batch is used to assess cell membrane status and viability using the Trypan Blue exclusion method (Phillips, H J. (1973) In: Tissue culture and applications, [eds: Kruse, D. F. & Patterson, M. K]; pp 406-408; Academic Press, New York)
Results for steroid sulphatase activity are expressed as the mean±1S.D. of the total product (oestrone+oestradiol) formed during the incubation period (3-4 hours) calculated for […] and, for values showing statistical significance, as a percentage reduction (inhibition) over incubations containing no oestrone-3-sulphamate. Unpaired Student's t-test was used to test the statistical significance of results
Sterioid sulphatase inhibition was measured in accordance with Protocol 1

Bounds are passed on as bounds.

With `CN1CCN(c2cc(N(Cc3ccc(O)cc3)n3cnnc3)ccc2C#N)CC1` [Compound 22], on Aromatase, 13.8 ± 4.51 nM corresponded to half-maximal inhibition (IC50).
As to `N#Cc1ccc(N(Cc2ccc(OS(N)(=O)=O)cc2)n2cnnc2)cc1N1CCCCC1` [Compound 17], the IC50 at Aromatase worked out at 3.4 ± 0.2 nM; against Steroid sulphatase (STS), 43 ± 6 nM.
In the same order, the values of `N#Cc1ccc(N(Cc2ccc(OS(N)(=O)=O)cc2F)n2cnnc2)cc1-c1ccccc1` [Compound 31] are 1.43 ± 0.55 nM and 0.15 ± 0.03 nM.
Regarding `N#Cc1ccc(N(CCC(=O)c2ccc(OS(N)(=O)=O)cc2)n2cnnc2)cc1-c1ccccc1` [Compound 29], the IC50 at Aromatase is < 0.1 nM; on Steroid sulphatase (STS) it was 1150 ± 50 nM.
For `N#Cc1ccc(N(Cc2ccc(OS(N)(=O)=O)c(Br)c2)n2cnnc2)cc1-c1ccsc1` [Compound 9] the same measures were 2.6 ± 0.2 nM and 3.9 ± 0.8 nM.
On to `N#Cc1ccc(N(Cc2ccc(O)cc2)n2cnnc2)cc1Oc1ccccc1` [Compound 56], for which 1.82 ± 0.03 nM corresponded to half-maximal inhibition at Aromatase (IC50).
For the compound `N#Cc1ccc(N(Cc2ccc(OS(N)(=O)=O)cc2)n2cnnc2)cc1N1CCCC1` [Compound 15], the figures for the IC50 at Aromatase and at Steroid sulphatase (STS) were < 0.1 nM and 60 ± 7 nM, respectively.
For `COc1ccc(-c2cc(N(Cc3c(F)cc(OS(N)(=O)=O)cc3F)n3cnnc3)ccc2C#N)cc1` [Compound 36] the same measures were < 0.1 nM and 0.1 nM.
Compound `N#Cc1ccc(N(Cc2ccc(O)cc2)n2cnnc2)cc1-c1ccncc1` [Compound 50] gave an IC50 against Aromatase of 4.03 ± 0.29 nM.
Same read-out and setting: the result for `N#Cc1ccc(N(Cc2ccc(O)c(F)c2F)n2cnnc2)cc1-c1ccccc1` [Compound 33] reads 1 ± 0.3 nM.
As to `N#Cc1ccc(N(Cc2ccc(Br)cc2)n2cnnc2)cc1-c1ccc(OS(N)(=O)=O)cc1` [CAB06059, 5′-((4-Bromobenzyl)(4H-1,2,4-triazol-4-yl)amino)-2′-cyanobiphenyl-4-yl sulfamate], the IC50 on Aromatase came to 0.05 ± 0.01 nM; against Steroid sulphatase (STS) it was 2900 ± 100 nM.
In the same order, the values of `N#Cc1ccc(N(Cc2ccc(OS(N)(=O)=O)cc2)n2cnnc2)cc1-c1ccncc1` [Compound 51] are 36 ± 1.7 nM and 198 ± 37 nM.
In the same order, the values of `N#Cc1ccc(N(Cc2ccc(OS(N)(=O)=O)cc2)n2cnnc2)cc1Cc1ccccc1` [Compound 13] are < 0.1 nM and 41 ± 3 nM.
In turn, `N#Cc1ccc(N(Cc2ccc(O)cc2F)n2cnnc2)cc1-c1ccccc1` [Compound 30] returned an IC50 on Aromatase of 0.35 ± 0.06 nM.
The same measure, in the same setting: the same measure for `N#Cc1ccc(N(Cc2ccc(OS(N)(=O)=O)cc2)n2cnnc2)c2ccccc12` [Compound 27]: 200 ± 5 nM.
Turning to `N#Cc1ccc(N(Cc2ccccc2)n2cnnc2)cc1-c1ccc(OS(N)(=O)=O)cc1` [CAB06054, 5′-(Benzyl(4H-1,2,4-triazol-4-yl)amino)-2′-cyanobiphenyl-4-yl sulfamate], the figures for the IC50 on Aromatase and at Steroid sulphatase (STS) were 0.1 ± 0.02 nM and 2900 ± 180 nM, respectively.
Consider `N#Cc1ccc(N(Cc2ccc(OS(N)(=O)=O)c(F)c2)n2cnnc2)cc1-c1ccccc1` [CAB06044, 4-(((6-Cyanobiphenyl-3-yl)(4H-1,2,4-triazol-4-yl)amino)methyl)-2-fluorophenyl sulfamate], for which the IC50 stood at 0.15 ± 0.03 nM at Aromatase and 2.3 ± 0.9 nM against Steroid sulphatase (STS).
For the compound `CN1CCN(c2cc(N(Cc3ccc(OS(N)(=O)=O)cc3)n3cnnc3)ccc2C#N)CC1` [Compound 23], the IC50 on Aromatase was 89 ± 10.2 nM; at Steroid sulphatase (STS), 2800 ± 985 nM.
`N#Cc1ccc(N(Cc2ccc(OS(N)(=O)=O)c(F)c2F)n2cnnc2)cc1-c1ccccc1` [Compound 34]: the IC50 at Aromatase turned out to be 0.8 ± 0.3 nM; against Steroid sulphatase (STS), 2.8 ± 0.9 nM.
Consider `N#Cc1ccc(N(Cc2ccc(OS(N)(=O)=O)cc2)n2cnnc2)cc1-c1ccccc1` [Compound 3], for which the IC50 amounted to 0.25 ± 0.03 nM against Aromatase and 3 ± 0.5 nM against Steroid sulphatase (STS).
At Aromatase, `N#Cc1ccc(C(c2ccc(O)cc2)n2cncn2)cc1-c1ccccc1` (stereo not drawn) [Compound 37] displayed an IC50 of 0.23 ± 0.04 nM.
Same read-out and setting: the same measure for `N#Cc1ccc(N(Cc2c(F)cc(O)cc2F)n2cnnc2)cc1-c1ccc(F)cc1` [Compound 46]: 4.1 ± 0.2 nM.
As to `N#Cc1ccc(N(CCc2c(F)cc(OS(N)(=O)=O)cc2F)n2cnnc2)cc1` [Compound 25], 485 ± 50.7 nM corresponded to half-maximal inhibition on Steroid sulphatase (STS) (IC50).
Turning to `N#Cc1ccc(N(Cc2ccc(O)cc2)n2cnnc2)cc1CN1CCCC1` [Compound 40], the IC50 on Aromatase was 8 nM.
On the same count and under the same terms, the same measure for `N#Cc1ccc(N(Cc2ccc(O)cc2)n2cnnc2)cc1Cc1ccccc1` [Compound 12]: < 0.1 nM; for `N#Cc1ccc(N(Cc2ccc(O)c(F)c2)n2cnnc2)cc1-c1ccccc1` [CAB06043, 5-((3-Fluoro-4-hydroxybenzyl)(4H-1,2,4-triazol-4-yl)amino)biphenyl-2-carbonitrile]: 1.6 ± 0.6 nM; for `N#Cc1ccc(N(Cc2ccccc2)n2cnnc2)cc1-c1ccc(O)cc1` [CAB06052, 5-(Benzyl-[1,2,4]triazol-4-yl-amino)-4′-hydroxy-biphenyl-2-carbonitrile]: 0.33 ± 0.01 nM.
Take `N#Cc1ccc(N(Cc2ccc(Br)cc2)n2cnnc2)cc1-c1ccccc1` [Compound 1]: the IC50 against Aromatase was < 0.1 nM.
For the compound `COc1ccc(-c2cc(Nn3cnnc3)ccc2C#N)cc1` [CAB06046, 5-(4H-1,2,4-Triazol-4-ylamino)-4′-methoxybiphenyl-2-carbonitrile], the 50% inhibitory concentration (IC50) at Aromatase came out at 0.26 ± 0.12 nM.
On Aromatase, `N#Cc1ccc(N(Cc2ccc(O)c(Br)c2)n2cnnc2)cc1-c1ccccc1` [CAB06026, 5-((3-Bromo-4-hydroxybenzyl)(4H-1,2,4-triazol-4-yl)amino)biphenyl-2-carbonitrile] returned a half-maximal inhibitory concentration (IC50) of 3.6 ± 0.4 nM.
The compound `N#Cc1ccc(N(Cc2ccc(OS(N)(=O)=O)cc2)n2cnnc2)cc1N1CCOCC1` [Compound 21] displayed an IC50 against Aromatase of 44 ± 5 nM.
Same read-out and setting: the same measure for `N#Cc1ccc(N(Cc2ccc(O)cc2)n2cnnc2)cc1-c1ccccc1` [CAB06021, 5-((4-Hydroxybenzyl)(4H-1,2,4-triazol-4-yl)amino)biphenyl-2-carbonitrile]: < 0.1 nM.
For the compound `COc1ccc(Cc2cc(N(Cc3ccc(O)cc3)n3cnnc3)ccc2C#N)cc1` [Compound 44], the IC50 against Aromatase is 3.1 ± 0.4 nM.
Take `N#Cc1ccc(Nn2cnnc2)cc1-c1ccccc1` [CAB06022, 5-(4H-1,2,4-Triazol-4-ylamino)biphenyl-2-carbonitrile]: half-maximal inhibition at Aromatase (IC50) required 0.39 ± 0.09 nM.
In the case of `N#Cc1ccc(N(Cc2ccc(Br)cc2)n2cnnc2)c(-c2ccccc2)c1` [Compound 2], the IC50 against Aromatase worked out at 960 ± 53 nM.
The same measure, in the same setting: the result for `N#Cc1ccc(N(CCc2c(F)cc(O)cc2F)n2cnnc2)cc1` [Compound 24] reads 0.14 ± 0.03 nM; that for `COc1ccc(-c2cc(N(Cc3c(F)cc(O)cc3F)n3cnnc3)ccc2C#N)cc1` [Compound 35], < 0.1 nM.

(Values after US8846737B2, “Compound” (Sterix Limited, priority 2009, dated 2014).)
